Assay results: ChEMBL document CHEMBL3301361, “Experimental in vitro DMPK and physicochemical data on a set of publicly disclosed compounds”
In brackets after ≈: the same amount, converted by molar mass.

Legend:
[1] = physchem
[2] = in vitro; settings: human, plasma
[3] = in vitro; settings: SD, HW or BN, rat, plasma
[4] = physchem; remark: listed apart in the source
[5] = physchem; settings: octan-1-ol/water
[6] = in vitro; settings: human
[7] = in vitro; settings: Beagle, dog, plasma
[8] = in vitro; settings: human, hepatocytes
[9] = in vitro; settings: hepatocytes
[10] = physchem; settings: pH 7.4 buffer

Compound | pKa [1] | fraction unbound at 5 h [3] | pKa [4] | logD ([5]; pH 7.4, LogD7.4) | fraction unbound at 5 h ([2]; PPB) | microsomal CLint ([6]; liver microsomes) | fraction unbound at 5 h [7] | hepatocyte CLint [8] | microsomal CLint ([6]; microsomes) | hepatocyte CLint [9] | solubility thermodynamic [10] | fraction unbound at 5 h [2] | logD ([5]; pH 7.4)
Nc1nc(O)c(Cl)c(-c2ccccc2)n1 | 2.35 | 0.0661 | 7.45 |  |  |  |  |  |  |  |  | 0.0477 | 
Nc1[nH]ncc1-c1cc(Cl)ccc1Oc1cc(F)c(S(=O)(=O)Nc2cscn2)cc1Cl [PF-05089771] |  | 0.0055 | 6.2 |  | 0.0024 |  | 0.0048 | 5.62 µL/min/1e6 cells |  |  |  |  | 
C[C@H]1CN(Cc2cc(Cl)ccc2OCC(=O)O)CCN1C(=O)Cc1ccccc1 | 7 | 0.11 | 2.5 |  |  |  | 0.0784 |  | < 3 µL/min/mg |  |  | 0.0262 | 0.18
Nc1cc(-c2cc(C(F)(F)F)ccc2Oc2cc(F)c(S(=O)(=O)Nc3ncns3)cc2Cl)ccn1 | 6.4 | 0.0035 | 3.18 |  |  |  |  |  |  |  |  |  | 
N#Cc1ccc(NC(=O)Nc2ccccc2Br)c2nn[nH]c12 |  |  | 6.2 | 1.64 | 0.0042 |  | 0.0049 |  | 23 µL/min/mg | 69 µL/min/1e6 cells |  |  | 
COc1ccc(COc2nc(Br)cnc2NS(=O)(=O)c2ccc(C)cc2)cc1OCCN(C)C | 8.8 |  | 5.05 | 1.68 | 0.0033 | 7 µL/min/mg |  |  |  | 31 µL/min/1e6 cells | 77.6 µM (≈ 42.8 µg/mL) |  | 
Cc1cc(CN2Cc3ccccc3C2C(=O)Nc2ccc(Cl)cc2Cl)ccc1OCC(=O)O (stereo not drawn) | 5.6 | 0.0014 | 3.1 | 2.62 | 0.0013 |  |  |  |  |  | 479 µM (≈ 232 µg/mL) |  | 
CCCSc1ccc2nc(NC(=O)OC)[nH]c2c1 [ALBENDAZOLE] | 5.88 | 0.0581 | 10.5 |  |  |  |  |  | 34.7 µL/min/mg | 83.2 µL/min/1e6 cells | 1.6 µM (≈ 0.425 µg/mL) | 0.0457 | 3.24
CCN(CC)CCNC(=O)c1ccc(NS(C)(=O)=O)cc1 [SEMATILIDE] | 9.35 | 0.899 | 7.52 |  | 0.849 |  | 0.899 |  |  |  |  |  | 
Cc1ccc2c(c1)c(-c1ccnc3cc(Cl)ccc13)c(C)n2CC(=O)O | 2.6 |  | 5 | 1.59 | 0.0018 | 4 µL/min/mg | 0.0035 |  |  |  |  |  | 
Cc1cc(CN2Cc3ccccc3C[C@H]2C(=O)Nc2ccc(Cl)cc2Cl)ccc1OCC(=O)O | 6.2 |  | 3.1 | 2.41 |  |  |  |  | 11 µL/min/mg | 31 µL/min/1e6 cells | 347 µM (≈ 173 µg/mL) |  | 
COCCOc1nc(N)c2[nH]c(=O)n(Cc3ccccc3)c2n1 | 2.4 | 0.376 | 9.5 | 2.26 | 0.105 | < 3 µL/min/mg |  |  |  |  |  |  | 
CN1CCN(CC(=O)N2c3ccccc3C(=O)Nc3cccnc32)CC1 [PIRENZEPINE] | 7.88 |  | 10.7 | -0.49 | 0.76 | < 3 µL/min/mg |  |  |  | 6.76 µL/min/1e6 cells |  |  | 

Continued, in another order:

pKa [1] | fraction unbound at 5 h [3] | pKa [4] | logD ([5]; pH 7.4, LogD7.4) | fraction unbound at 5 h ([2]; PPB) | microsomal CLint ([6]; liver microsomes) | fraction unbound at 5 h [7] | hepatocyte CLint [8] | microsomal CLint ([6]; microsomes) | hepatocyte CLint [9] | solubility thermodynamic [10] | Compound | fraction unbound at 5 h [2] | logD ([5]; pH 7.4)
8.7 |  | 3.2 | 2.2 | 0.179 | 3 µL/min/mg |  |  |  |  |  | Cc1ccc(S(=O)(=O)NC(=O)N2CCC(N3CCC(Oc4ccc(Cl)c(C)c4Cl)CC3)CC2)cc1 |  | 
10.1 | 0.0532 | 3.19 |  | 0.02 |  | 0.0437 |  |  |  |  | O=S(=O)(Nc1ncns1)c1cc(F)c(Oc2ccc(Cl)cc2-c2ccnn2C2CNC2)cc1F |  | 
 |  | 3.4 | -0.43 | 0.0268 | < 3 µL/min/mg | 0.0082 |  |  |  |  | CCS(=O)(=O)c1ccc(-c2cc(Cl)ccc2OCC(=O)O)c(Cl)c1 |  | 
9.3 |  | 3.7 |  |  | 12 µL/min/mg |  |  |  | < 3 µL/min/1e6 cells |  | O=C(O)COc1cccc(N2CCC(CN3CCC(Oc4ccc(Cl)c(Cl)c4)CC3)CC2)c1 |  | 
 |  | 3.7 | 0.06 | 0.0052 | 7 µL/min/mg | 0.0167 |  |  |  |  | Cc1ccc2c(c1)c(S(=O)(=O)c1ccc(Cl)cc1)c(C)n2CC(=O)O |  | 
 | 0.03 | 4.2 | 1.35 | 0.0049 | 23.6 µL/min/mg | 0.0418 | < 3 µL/min/1e6 cells |  | 13.5 µL/min/1e6 cells |  | CCC(CC)NC(=O)c1c(C)nn(-c2ccccc2)c1NS(=O)(=O)c1ccc(C)cc1 |  | 
8.45 |  | 3 | 1.79 | 0.194 |  |  |  | 11 µL/min/mg |  |  | O=C(NS(=O)(=O)c1ccc(F)cc1)N1CCC(N2CCC(Oc3ccc(Cl)c(Cl)c3)CC2)CC1 |  | 
8.7 |  | 4.3 |  |  | 6 µL/min/mg |  |  |  |  | 141 µM (≈ 65.5 µg/mL) | O=C(O)c1cccc(N2CCC(CN3CCC(Oc4ccc(Cl)c(Cl)c4)CC3)CC2)c1 |  | 
8.6 |  | 6.6 | 1.74 | 0.0175 | 33 µL/min/mg |  |  |  |  |  | CN(C)c1ccccc1S(=O)(=O)NC(=O)N1CCC(N2CCC(Oc3ccc(Cl)c(Cl)c3)CC2)CC1 |  | 
8.1 |  | 3.3 | 1.5 | 0.186 | < 3 µL/min/mg |  |  |  |  |  | O=C(NS(=O)(=O)c1ccccc1)N1CCC(N2CCC(Oc3ccc(Cl)c(Cl)c3)CC2)CC1 |  | 
8.3 |  | 3.6 | 1.39 | 0.0127 | < 3 µL/min/mg |  |  |  |  |  | COc1ccc(S(=O)(=O)NC(=O)N2CCC(N3CCC(Oc4ccc(Cl)c(Cl)c4)CC3)CC2)cc1 |  | 
8.2 |  | 2.5 | 2.59 | 0.329 | 5 µL/min/mg |  |  |  |  |  | O=C(NS(=O)(=O)c1ccc(Cl)cc1)N1CCC(N2CCC(Oc3ccc(Cl)c(Cl)c3)CC2)CC1 |  | 
 | 0.0042 | 5.5 |  | 0.0041 |  | 0.0196 |  | 8.86 µL/min/mg | < 3 µL/min/1e6 cells | 4.8 µM (≈ 2.06 µg/mL) | CN(C)S(=O)(=O)NC(=O)CCCc1c(-c2ccc(F)cc2)[nH]c2ccc(C#N)cc12 |  | 
 | 0.11 | 5 | 1.23 | 0.0736 |  | 0.107 |  |  |  |  | Cc1nn(C2CCOCC2)c(NS(=O)(=O)c2ccc(C3CC3)cc2)c1C(=O)N[C@@H](C)C(C)(C)C |  | 
6.7 |  | 2.9 |  |  |  |  |  | 101 µL/min/mg | 43.4 µL/min/1e6 cells | 813 µM (≈ 390 µg/mL) | Cc1cc(CN(CC(=O)Nc2ccc(Cl)cc2Cl)C2CCCCC2)ccc1OCC(=O)O |  | 
8.2 |  | 2.9 | 1.09 | 0.013 |  |  |  | < 3 µL/min/mg |  |  | O=C(O)COc1cccc(C(=O)N2CCC(N3CCC(Oc4ccc(Cl)c(Cl)c4)CC3)CC2)c1 |  | 
8.6 |  | 3.4 | 1.23 | 0.0499 | < 3 µL/min/mg |  |  |  |  |  | O=C(O)c1cccc(C(=O)N2CCC(N3CCC(Oc4ccc(Cl)c(Cl)c4)CC3)CC2)c1 |  | 
